For test [1], the species on record is Homo sapiens. Put plainly: The compound was tested for inhibition of human splenocyte proliferation by [3H]thymidine incorporation. It is filed as functional, organism-based. In general terms: Incorporation of labelled thymidine or its analogues reports DNA synthesis.
Test [2] is filed under the species Mus musculus. As to the kind of experiment: The compound was tested for inhibition of murine splenocyte proliferation by [3H]thymidine incorporation. It is filed as functional, organism-based.

Where only a bound is given, the exact number is not on record here.

For the compound `CC1C=CC(=O)N1C(=O)[C@@H]1C[C@H](O)CN1` (some centres not stated), the EC50 in test [1] and in test [2] was over 2400 nM throughout.

As to `CCCCC(C)CC(C)C(=O)N(C)[C@@H](CC(C)C)C(=O)N[C@H](C(=O)N(C)[C@H](C(=O)N1CCC[C@H]1C(=O)N1C(=O)CCC1C)C(C)C)C(C)OC(C)=O` (some centres not stated), the EC50 was 341 nM in test [1] and over 668 nM in test [2].

Regarding `CCCCC(C)CC(C)C(=O)N(C)[C@@H](CC(C)C)C(=O)N[C@H](C(=O)N(C)[C@H](C(=O)OC)C(C)C)C(C)OO` (some centres not stated), the EC50 in test [1] and in test [2] was 380 nM each time.

In the case of `CCCCC(C)CC(C)C(=O)N(C)[C@@H](CC(C)C)C(=O)N[C@H](C(=O)N(C)[C@H](C(=O)N1C[C@@H](O)C[C@H]1C(=O)N1C(=O)C=CC1C)C(C)C)C(C)OC(C)=O` (some centres not stated), the EC50 in test [1] and in test [2] was 0.02 nM in each case.

For `CCCCC(C)CC(C)C(=O)N(C)[C@@H](CC(C)C)C(=O)N[C@H](C(=O)N(C)[C@H](C(=O)N1C[C@@H](O)C[C@H]1C(=O)OC)C(C)C)[C@@H](C)O` (some centres not stated), the EC50 in test [1] and in test [2] was over 781 nM throughout.

In the case of `CCCCC(C)CC(C)C(=O)N(C)[C@@H](CC(C)C)C(=O)N[C@H](C(=O)N(C)[C@H](C(=O)N1C[C@@H](O)C[C@H]1C(=O)N1C(=O)CCC1C)C(C)C)C(C)OC(C)=O` (some centres not stated), the concentration giving a half-maximal response (EC50) in test [1] and in test [2] was over 668 nM throughout.

As to `CCCCC(C)CC(C)C(=O)N(C)[C@@H](CC(C)C)C(=O)N[C@@H]1C(=O)N(C)[C@@H](C(C)C)C(=O)O[C@@H]1C` (some centres not stated), the EC50 in test [1] is 8.1 nM; in test [2] it was 10 nM.

Take `CCCCC(C)CC(C)C(=O)N(C)[C@@H](CC(C)C)C(=O)N[C@H](C(=O)N(C)[C@H](C(=O)N1CC(=O)C[C@H]1C(=O)N1C(=O)C=CC1C)C(C)C)C(C)OC(C)=O` (single isomer, unassigned): the EC50 in test [1] and in test [2] was 5.4 nM throughout.

Turning to `CCCCC(C)CC(C)C(=O)N(C)[C@@H](CC(C)C)C(=O)N[C@H](C(=O)N(C)[C@H](C(=O)N1CCC[C@H]1C(=O)N1C(=O)C=CC1C)C(C)C)C(C)OC(C)=O` (some centres not stated), the EC50 in test [1] is 4.1 nM; in test [2] it was 20.5 nM.

Turning to `CCCCC(C)CC(C)C(=O)N(C)[C@@H](CC(C)C)C(=O)N[C@H](C(=O)N(C)[C@H](C(=O)N1C[C@@H](O)C[C@H]1C(=O)N1C(=O)C=CC1C)C(C)C)C(C)O` (some centres not stated), the EC50 amounted to 0.04 nM in test [1] and 0.006 nM in test [2].

In the case of `CCCCC(C)CC(C)C(=O)N(C)[C@@H](CC(C)C)C(=O)N[C@H](C(=O)N(C)[C@H](C(=O)N1C[C@@H](OC(C)=O)C[C@H]1C(=O)N1C(=O)C=CC1C)C(C)C)C(C)OC(C)=O` (some centres not stated), the EC50 in test [1] is 10.2 nM; in test [2], 19 nM.

As a reminder, the EC50 is the concentration needed to bring the measured effect to its halfway point. A low value points to an effect from little substance.

For the origin of these results see ChEMBL document CHEMBL1127470, “Analogues of the marine immunosuppressant microcolin A: preparation and biological activity” (J Med Chem, 1994).
